Source: BindingDB's records for PubMed 28741798 (Daiichi Sankyo Co., Ltd)

Biological target: Histone-lysine N-methyltransferase KMT5B (Homo sapiens, UniProt Q4FZB7)
Experiment: Inhibition of human SUV420H1 transcript variant 2 using Nucleosomes and [3H]SAM as substrate incubated for 30 mins to 1 hr by HotSpot kinase assay

Chain of Histone-lysine N-methyltransferase KMT5B (Q4FZB7 whole entry): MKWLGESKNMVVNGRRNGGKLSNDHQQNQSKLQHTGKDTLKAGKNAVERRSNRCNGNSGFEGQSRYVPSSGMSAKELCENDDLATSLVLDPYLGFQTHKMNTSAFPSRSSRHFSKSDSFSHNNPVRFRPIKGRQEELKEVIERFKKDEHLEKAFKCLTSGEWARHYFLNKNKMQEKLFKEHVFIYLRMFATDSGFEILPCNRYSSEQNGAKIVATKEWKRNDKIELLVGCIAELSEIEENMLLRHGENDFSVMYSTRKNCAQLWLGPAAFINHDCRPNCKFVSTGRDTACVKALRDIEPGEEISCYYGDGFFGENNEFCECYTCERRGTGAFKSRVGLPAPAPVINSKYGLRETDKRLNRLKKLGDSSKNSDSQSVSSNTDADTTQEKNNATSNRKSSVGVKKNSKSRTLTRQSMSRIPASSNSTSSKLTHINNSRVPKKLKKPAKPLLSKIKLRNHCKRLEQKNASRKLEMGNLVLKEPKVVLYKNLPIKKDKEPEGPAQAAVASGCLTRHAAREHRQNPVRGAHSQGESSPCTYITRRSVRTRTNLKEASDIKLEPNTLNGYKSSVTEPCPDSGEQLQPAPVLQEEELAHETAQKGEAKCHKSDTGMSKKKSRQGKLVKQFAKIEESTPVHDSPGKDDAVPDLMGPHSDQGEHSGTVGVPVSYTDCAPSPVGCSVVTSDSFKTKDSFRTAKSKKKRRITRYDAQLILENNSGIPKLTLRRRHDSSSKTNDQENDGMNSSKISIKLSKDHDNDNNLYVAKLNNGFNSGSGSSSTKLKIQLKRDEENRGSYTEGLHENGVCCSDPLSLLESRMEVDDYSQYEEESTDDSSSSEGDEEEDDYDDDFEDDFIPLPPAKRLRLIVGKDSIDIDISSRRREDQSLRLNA

IC50: 1000 nM
SMILES: Cc1cc(C)c(CNC(=O)c2cc(Cl)c3c(c2C)O[C@@](C)([C@H]2CC[C@H](N(C)C)CC2)O3)c(=O)[nH]1 [(2R)-7-chloro-2-[trans-4-(dimethylamino)cyclohexyl]-N-[(4,6-dimethyl-2-oxo-1,2-dihydropyridin-3-yl)methyl]-2,4-dimethyl-1,3-benzodioxole-5-carboxamide (Valemetostat)]
